How the values were obtained:
[1] = tested on: HIV virus (recombinant virus carrying reverse transcriptase from patient plasma); test: Recombinant virus assay (RVA): susceptibility to reverse transcriptase inhibitors, recombinant viruses from patient samples; assay type: cell-based, HIV-1; settings: for resistance levels (in words): sample R5; for median Resistance Index (RI) relative to NL43: 22 tested viruses from patients with ordinary treatment, 3 RVA replicates
Procedure: (§1) The determination of the susceptibility of an HIV virus to a reverse transcriptase inhibitor is carried out in the following manner: 293 T cells are transfected with 7.5 μg of pSRT plasmid that is linearized by NruI, 0.1 μg of pVSV-G plasmid and 0.5 and 1 μg of the product that is obtained from the PCR reaction of the reverse transcription of HIV. The transfection precipitate is withdrawn from cells after 18 hours of incubation, and fresh growth medium is added. After 24 hours of cultivation, the supernatant is clarified by centrifuging (500 g, 15 minutes) and transferred to P4 indicating cells that were pre-incubated with serial dilutions of a reverse transcriptase inhibitor, in triplicate wells, for four hours. The range of inhibitor concentrations used varies according to the compounds. The signal that is produced by the activation of the marker gene was developed with CPRG for 48 hours as for the analysis of the susceptibility to a reverse transcriptase inhibitor, and index IC50 was calculated by using the median effect equation.
To determine if NL43 is a reference virus that is suitable for comparison with clinical isolates, a group of samples taken from patients with ordinary treatment was tested on 3 RVA replicates for their susceptibility to reverse transcriptase inhibitors.
The reproducibility of the method for determining the susceptibility of the recombinant virus (RVA) to reverse transcriptase inhibitors (RTI) was evaluated by a series of test on 5 samples, selected so as to represent a wide range of susceptibility profiles, between 4 and 8 tests per sample, by using RNA preparations and separate PCR reactions.

[2] = tested on: HIV viruses (NL-DIM, NL4.3, LAI-L91H); test: Validation of fusion inhibitor susceptibility method: resistant recombinant viruses versus reference viruses T5A1 and LAI; assay type: cell-based, HIV-1
Procedure: The recombinations that are obtained by using for the amplification of stage (b) the pair of primers FuA: 5′ […]3′ (SEQ ID No: 23) and FuB: 5′ […]3′ (SEQ ID No: 24) followed by a second amplification, carried out with the primer: FuC: 5′ […]3′ (SEQ ID No: 25) and a mixture of the following primers: FuD1: 5′ […]3′ (SEQ ID No: 26) and FuD2: 5′ […]3′ (SEQ ID No: 27) are very effective.
Actually, to obtain a satisfactory viral production, 10-50 ng of PCR product, used in the recombination stage, is generally adequate. In this method that is intended to analyze the phenotypic fusion characteristic, a viral production corresponding to 50-400 ng/ml of p24 is obtained after transfection. For the infection of target cells, between 0.5 and 5 ng of p24/well (96-well plates) is used. The increase of the optical density that is obtained after infection of target cells is linear if the infection is conducted under these conditions.
To validate the analytical method that relates to the susceptibility of HIV viruses to fusion inhibitors, two fusion inhibitors have been used: a peptide derived from the distal helix sequence in the gp41 of HIV (called DP178 or T20) and a derivative of betulinic acid (RPR103611). For each inhibitor, the reduction of sensitivity of one or more resistant viruses (previously identified by other authors) relative to two reference viruses: a primary plasmatic virus T5A1 and a virus adapted to in-vitro cultivation (LAI) was carried out. All the viruses were produced by recombination.
The increases of IC50 for a strongly resistant NL-DIM virus (described by Rimsky, L. T. et al. J. Virol. 1998, Vol. 72, pages 896-993) and for the NL4.3 virus (which is partially resistant) were measured regarding this inhibitor.
The increase of IC50 of the LA1-L91H resistant virus (Labrosse, B. et al. J. Virol. 2000 Vol 74, pages 2142-2150) regarding this inhibitor has been measured.

[3] = tested on: Reference Virus NL4-3; test: Recombinant virus assay (RVA): susceptibility to reverse transcriptase inhibitors, reference virus; assay type: cell-based, HIV-1
Procedure: as §1
The pSRT plasmid that brings a deletion in the region that codes for pol extending from codon 24 of reverse transcriptase (base 2618) to codon 432 of reverse transcriptase (base 3872) includes all of the mutations combined with a resistance phenomenon that are known to date. […]

[4] = tested on: P4 cells; assay type: cell-based
Source text: The inhibitor concentration ranges that are used are selected based on the cellular toxicity of each compound and the IC50/IC90, ratio for the susceptibility of the resistant isolates (Table 1). […] A range of four serial dilutions, beginning at […], was used for the abacavir, making it possible to detect up to 60× more resistance.

[5] = molecular target: Envelope protein (gp41) of the NL4.3 reference virus (HIV-1); test: cell-based or functional assay
[6] = molecular target: Envelope protein (gp41) of the strongly resistant NL-DIM virus (HIV-1); test: cell-based or functional assay
[7] = sample R1 (69N/T, 70R), 6 tests
[8] = sample R2 (41L, 62V, 67N, 69N, 75I, 77L, 115F, 116Y, 151M, 181C, 184V, 190A, 208Y, 215F, 219Q), 6 tests
[9] = sample R3 (184V, 215F), 6 tests
[10] = sample R4 (41L, 67N, 69D, 184V, 190A, H208Y, 210W, 215Y), 5 tests
[11] = sample R5 (215Y, 41L, 74V, 100I, 103N), 5 tests

Compound | Resistance Index, geometric mean (IC50 in the sample relative to NL43) [1, 7] | Resistance Index, geometric mean (IC50 in the sample relative to NL43) [1, 8] | Resistance Index, geometric mean (IC50 in the sample relative to NL43) [1, 9] | Resistance Index, geometric mean (IC50 in the sample relative to NL43) [1, 10] | Resistance Index, geometric mean (IC50 in the sample relative to NL43) [1, 11] | also measured
O=C1Nc2ccc(Cl)cc2[C@@](C#CC2CC2)(C(F)(F)F)O1 [Efavirenz] | 1.0 | 74.9 | 1.0 | 149.8 | > | resistance levels (in words) [1]: high resistance levels
O=c1[nH]cnc2c1ncn2[C@H]1CC[C@@H](CO)O1 [DDI] | 1.4 | 26.9 | 3.1 | 3.0 | 2.6 | 
enfuvirtide |  |  |  |  |  | increase of IC50 ([2]; partially resistant NL4.3 virus relative to 15A1): 10 ×; increase of IC50 ([2]; partially resistant NL4.3 virus relative to LAI): 12.5 ×; increase of the value of IC50 ([2]; strongly resistant DIM virus relative to LAI): more than 100 ×; increase of the value of IC50 ([2]; strongly resistant DIM virus relative to T5A1): 80 ×
Cc1cn([C@H]2C=C[C@@H](CO)O2)c(=O)[nH]c1=O [D4T, stavudine] |  |  |  |  |  | median Resistance Index (RI) relative to NL43 [1]: around 0.92
C=C(C)[C@@H]1CC[C@]2(C(=O)NCCCCCCCC(=O)N[C@@H](CC(C)C)[C@@H](O)CC(=O)O)CC[C@]3(C)[C@H](CC[C@@H]4[C@@]5(C)CC[C@H](O)C(C)(C)[C@@H]5CC[C@]43C)[C@@H]12 [RPR103611] |  |  |  |  |  | increase of IC50 ([2]; LAT-L91H resistant virus relative to LAI and to T5A1): greater than 100 ×
Nc1nc(NC2CC2)c2ncn([C@H]3C=C[C@@H](CO)C3)c2n1 [Abacavir] | 1.1 | > | 4.3 | 6.1 | 1.7 | IC50 index for the native stock of the virus [3]: about 3 μM; index IC50 for the P4 cells (cellular toxicity) [4]: about 250 μM
Nc1ccn([C@@H]2CS[C@H](CO)O2)c(=O)n1 [3TC, lamivudine] | 1.3 | >f | > | > | 1.8 | median Resistance Index (RI) relative to NL43 [1]: ~1.22; resistance level (in words) ([1]; sample R3): high resistance level
Cc1cn([C@H]2C[C@H](N=[N+]=[N-])[C@@H](CO)O2)c(=O)[nH]c1=O [AZT, ziodvudine] |  |  |  |  |  | toxicity for the P4 cells [4]: > 300 μm
Cc1ccnc2c1NC(=O)c1cccnc1N2C1CC1 [Nevirapine] |  |  |  |  |  | resistance index ([1]; one virus carrying a mutation on codon 98 (A for S) of reverse transcriptase): 11.0; resistance levels (in words) [1]: high resistance levels
T20 fusion inhibitor, a peptide derived from the distal helix sequence in the gp41 of HIV (from UniProt P03377 643-678) |  |  |  |  |  | increase of IC50 relative to LAI [5]: 12.5 fold; increase of IC50 relative to T5A1 (printed 15A1) [5]: 10 fold; increase of the value of IC50 relative to LAI [6]: > 100 fold; increase of the value of IC50 relative to T5A1 [6]: 80 fold

Source: patent US20040101828A1, “Method for analysis of the phenoptypic characteristics of the human immunodeficiency virus (HIV)” (priority 2000, published 2004)
